Assay results published in paper PMC9321231.
Where two headings read alike, the source gives them in different places.

Key:
[1] = test system: human biphenotypic B myelomonocytic leukemia (MV4-11) cells; test: Antiproliferative assay (MTT or SRB), MV4-11; format: cell-based; conditions: for IC50: MV-4-11, read-out: IC50 ± SD, antiproliferative activity; for Calculated Selectivity Index SI: IC50 Balb/3T3 / IC50 MV-4-11
Procedure: (§1) Cell preparation, an in vitro antiproliferative assay, and MTT and SRB cytotoxic tests were performed according to the literature.

[2] = target: T1, human neutrophil elastase (HNE) (Homo sapiens, UniProt P08246); test: Human neutrophil elastase inhibition assay (spectrofluorimetric, MeOSuc-AAPV-AMC substrate)
T1 sequence (P08246 30-267): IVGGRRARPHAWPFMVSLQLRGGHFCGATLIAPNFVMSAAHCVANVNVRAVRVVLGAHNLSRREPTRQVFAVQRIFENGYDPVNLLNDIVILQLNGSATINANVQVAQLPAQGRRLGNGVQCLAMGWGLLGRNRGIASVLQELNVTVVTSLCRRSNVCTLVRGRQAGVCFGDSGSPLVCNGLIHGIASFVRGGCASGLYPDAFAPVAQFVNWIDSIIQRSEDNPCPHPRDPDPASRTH
Procedure: The inhibition of human neutrophil elastase was carried out by the spectrofluorimetric method using N-methoxysuccinyl-Ala-Ala-Pro-Val-7-amido-4-methylcoumarin (MeOSuc-AAPV-AMC) as substrate.

[3] = test system: lung carcinoma (A549) cells; test: Antiproliferative assay (MTT or SRB), A549; format: cell-based, human; conditions: for IC50: A-549, read-out: IC50 ± SD, antiproliferative activity; for Calculated Selectivity Index SI: IC50 Balb/3T3 / IC50 A-549
Procedure: as §1

[4] = test system: human breast adenocarcinoma (MDA-MB-231) cells; test: Antiproliferative assay (MTT or SRB), MDA-MB-231; format: cell-based; conditions: for IC50: MDA-MB-231, read-out: IC50 ± SD, antiproliferative activity; for Calculated Selectivity Index SI: IC50 Balb/3T3 / IC50 MDA-MB-231
Procedure: as §1

[5] = target: T1, human neutrophil elastase (HNE); test: Kinetic analysis of the inhibition of human neutrophil elastase (Lineweaver-Burk, Dixon, secondary plots); format: biochemical; conditions: for Inhibition Type: Lineweaver-Burk and Dixon analysis; for Kis (enzyme-substrate-inhibitor dissociation constant): secondary plot of intercept versus inhibitor concentration; for Ki: secondary plot of slope versus inhibitor concentration, read-out: Ki (enzyme-inhibitor dissociation constant)
Procedure: Next, kinetic analysis of the mechanism of inhibition of human neutrophil elastase by thiazoles 3a–3j was determined using double-reciprocal plots of Lineweaver-Burk plots and Dixon analysis.
The first model is one in which the inhibitor binds better to the free enzyme (competitive mechanism), while the second model is one in which the inhibitor binds better to the enzyme-substrate complex (non-competitive mechanism). Next the secondary plots of slope versus concentration of test compounds were plotted to determine the enzyme-inhibitor dissociation constants Ki, and similarly as was used to determine enzyme-substrate-inhibitor dissociation constants Kis, the secondary plots of intercept versus concentration of tested compounds were plotted.
Kinetic studies were conducted in the presence of different concentrations of substrate (5, 25, 50 and 100 µM) and test compounds (in the range of 0–500 nM). The reaction conditions were the same as in the HNE inhibition assay and the reaction was monitored for 10 min at 25 °C with the same Ex an Em wavelengths. By Lineweaver–Burk plots, kinetic values such as the Michaelis–Menten constants and maximum velocity were determined. Next, two inhibition constants for inhibitor binding with free enzyme or enzyme–substrate complex (Ki and Kis) were obtained by plotting the secondary plot of the slopes of the determined straight lines or vertical intercept (1/Vmax) versus inhibitor concentration.

[6] = test system: normal mouse fibroblast (BALB/3T3) cells; test: Antiproliferative assay (MTT or SRB), normal fibroblasts BALB/3T3; format: cell-based; conditions: Balb/3T3 normal mouse fibroblasts; read-out: IC50 ± SD, antiproliferative activity
Procedure: Anticancer drugs are toxic to cancer cells, but also show some toxicity to healthy cells. […] The selectivity indexes for thiazoles 3a–3j against MV4-11 and A-549 cells were in general much higher than for MDA-MB-231 and UMUC-3 cells.
as §1

[7] = test system: urinary bladder carcinoma (UMUC-3) cells; test: Antiproliferative assay (MTT or SRB), UMUC-3; format: cell-based, human; conditions: for IC50: UMUC-3, read-out: IC50 ± SD, antiproliferative activity; for Calculated Selectivity Index SI: IC50 Balb/3T3 / IC50 UMUC-3
Procedure: as §1

| SMILES | IC50 ([1]; Homo sapiens, MV4-11) [µM] | IC50 [2] [µM] | IC50 ([3]; Homo sapiens, A549) [µM] | melting point [°C] | IC50 ([4]; Homo sapiens) [µM] | Inhibition Type [5] | Kis (enzyme-substrate-inhibitor dissociation constant) [5] [nM] | Ki [5] [µM] | IC50 ([7]; Homo sapiens, UMUC3) [µM] | Calculated Selectivity Index SI [1] | Calculated Selectivity Index SI [3] | Calculated Selectivity Index SI [4] | IC50 [6] [µM] | Calculated Selectivity Index SI [7] | IC50 [1] [µM] | IC50 [3] [µM] | IC50 [4] [µM] | IC50 [7] [µM] |
| --- | --- | --- | --- | --- | --- | --- | --- | --- | --- | --- | --- | --- | --- | --- | --- | --- | --- | --- |
| CCC1(CC)C(=O)N(c2ccc(-c3csc(Nc4c(F)c(F)c(F)c(F)c4F)n3)cc2)C1=O [3d, 3,3-Diethyl-1-(4-(2-(perfluorophenylamino)thiazol-4-yl)phenyl)azetidine-2,4-dione] | 5.4 ± 2.06 | 0.11 ± 0.00441 | 15.3 ± 4.98 | 162 to 164 | 72.1 ± 26 | mixed | 49.33 | 0.138 | 62.7 ± 9.98 | 8.61 | 3.04 | 0.64 | 46.5 ± 4.99 | 0.74 |  |  |  |  |
| CCC1(CC)C(=O)N(c2ccc(-c3csc(Nc4ccc(F)cc4)n3)cc2)C1=O [3b, 3,3-Diethyl-1-(4-(2-(4-fluorophenylamino)thiazol-4-yl)phenyl)azetidine-2,4-dione] | 5.92 ± 1.71 | 0.176 ± 0.0135 | 7.31 ± 0.46 | 155 to 157 | 9.34 ± 1.12 | mixed | 65.50 | 0.0722 | 9.07 ± 0.49 | 1.94 | 1.57 | 1.23 | 11.5 ± 1.47 | 1.27 |  |  |  |  |
| N.N.[Cl][Pt][Cl] [cisplatin, reference compound] |  |  |  |  |  |  |  |  |  |  |  |  | 8.04 ± 3.16 |  | 1.33 ± 0.17 | 4.09 ± 1 | 19.4 ± 6.8 | 1.73 ± 0.17 |
| CCC1(CC)C(=O)N(c2ccc(-c3csc(Nc4ccc(Cl)cc4)n3)cc2)C1=O [3a, 1-(4-(2-(4-Chlorophenylamino)thiazol-4-yl)phenyl)-3,3-diethylazetidine-2,4-dione] | 7.15 ± 0.94 | 0.227 ± 0.0351 | 7.01 ± 0.47 | 164 to 166 | 9.86 ± 0.94 | mixed | 426.00 | 0.59 | 10.7 ± 1.41 | 1.52 | 1.55 | 1.10 | 10.9 ± 1.18 | 1.02 |  |  |  |  |
| CCC1(CC)C(=O)N(c2ccc(-c3csc(Nc4cc(C)cc(C)c4)n3)cc2)C1=O [3f, 1-(4-(2-(3,5-Dimethylphenylamino)thiazol-4-yl)phenyl)-3,3-diethylazetidine-2,4-dione] | 5.89 ± 1.67 | 0.244 ± 0.0194 | 7.28 ± 1.07 | 140 to 143 | 12.5 ± 1.79 | mixed type I inhibition | 426.00 | 0.144 | 19.7 ± 5.49 | 4.04 | 3.27 | 1.90 | 23.8 ± 4.53 | 1.21 |  |  |  |  |

More lines, main results first:

| IC50 ([1]; Homo sapiens, MV4-11) [µM] | IC50 [2] [µM] | IC50 ([3]; Homo sapiens, A549) [µM] | melting point [°C] | IC50 ([4]; Homo sapiens) [µM] | Inhibition Type [5] | Kis (enzyme-substrate-inhibitor dissociation constant) [5] [nM] | Ki [5] [µM] | IC50 ([7]; Homo sapiens, UMUC3) [µM] | SMILES | Calculated Selectivity Index SI [1] | Calculated Selectivity Index SI [3] | Calculated Selectivity Index SI [4] | IC50 [6] [µM] | Calculated Selectivity Index SI [7] | IC50 [1] [µM] | IC50 [3] [µM] | IC50 [4] [µM] | IC50 [7] [µM] |
| --- | --- | --- | --- | --- | --- | --- | --- | --- | --- | --- | --- | --- | --- | --- | --- | --- | --- | --- |
| 5.38 ± 0.46 | 0.312 ± 0.00576 | 5.59 ± 0.16 | 186 to 188 | 6.19 ± 0.42 | mixed type I inhibition | 171.25 | 0.137 | 7.89 ± 0.23 | CCC1(CC)C(=O)N(c2ccc(-c3csc(Nc4ccc5[nH]ncc5c4)n3)cc2)C1=O [3g, 1-(4-(2-(1H-Indazol-5-ylamino)thiazol-4-yl)phenyl)-3,3-diethylazetidine-2,4-dione] | 1.12 | 1.08 | 0.97 | 6.03 ± 0.46 | 0.76 |  |  |  |  |
| 6.64 ± 1.59 | 0.0446 ± 0.00604 | 9.2 ± 1.36 | 69 to 71 | 14.6 ± 3.17 | mixed type I inhibition | 46.50 | 0.0339 | 13.3 ± 1.81 | CCC1(CC)C(=O)N(c2ccc(-c3csc(Nc4cccc5ccccc45)n3)cc2)C1=O [3h, 3,3-Diethyl-1-(4-(2-(naphthalen-1-ylamino)thiazol-4-yl)phenyl)azetidine-2,4-dione] | 3.38 | 2.44 | 1.53 | 22.4 ± 8.62 | 1.69 |  |  |  |  |
| 5.47 ± 1.52 | 0.168 ± 0.0181 | 6.42 ± 0.72 | 170 to 172 | 11.7 ± 3.7 | mixed | 425.00 | 0.597 | 10.7 ± 3.05 | CCC1(CC)C(=O)N(c2ccc(-c3csc(Nc4ccc(C(F)(F)F)cc4)n3)cc2)C1=O [3i, 3,3-Diethyl-1-(4-(2-(4-(trifluoromethyl)phenylamino)thiazol-4-yl)phenyl)-azetidine-2,4-dione] | 1.85 | 1.58 | 0.87 | 10.1 ± 0.87 | 0.95 |  |  |  |  |
| 5.11 ± 1.42 | 0.249 ± 0.0328 | 6.21 ± 0.73 | 78 to 80 | 14.3 ± 3.45 | mixed | 38.00 | 0.209 | 25.3 ± 9.94 | CCC1(CC)C(=O)N(c2ccc(-c3csc(Nc4c(Cl)cc(Cl)cc4Cl)n3)cc2)C1=O [3j, 3,3-Diethyl-1-(4-(2-(2,4,6-trichlorophenylamino)thiazol-4-yl)phenyl)azetidine-2,4-dione] | 6.75 | 5.55 | 2.41 | 34.5 ± 22.7 | 1.36 |  |  |  |  |
